The results in this text go back to ChEMBL document CHEMBL2074326 (Proc Natl Acad Sci U S A, 2004).

Series [1] addresses T1, Solute carrier organic anion transporter family member 4C1 (Homo sapiens, UniProt Q6ZQN7).
T1 sequence (Q6ZQN7 whole entry): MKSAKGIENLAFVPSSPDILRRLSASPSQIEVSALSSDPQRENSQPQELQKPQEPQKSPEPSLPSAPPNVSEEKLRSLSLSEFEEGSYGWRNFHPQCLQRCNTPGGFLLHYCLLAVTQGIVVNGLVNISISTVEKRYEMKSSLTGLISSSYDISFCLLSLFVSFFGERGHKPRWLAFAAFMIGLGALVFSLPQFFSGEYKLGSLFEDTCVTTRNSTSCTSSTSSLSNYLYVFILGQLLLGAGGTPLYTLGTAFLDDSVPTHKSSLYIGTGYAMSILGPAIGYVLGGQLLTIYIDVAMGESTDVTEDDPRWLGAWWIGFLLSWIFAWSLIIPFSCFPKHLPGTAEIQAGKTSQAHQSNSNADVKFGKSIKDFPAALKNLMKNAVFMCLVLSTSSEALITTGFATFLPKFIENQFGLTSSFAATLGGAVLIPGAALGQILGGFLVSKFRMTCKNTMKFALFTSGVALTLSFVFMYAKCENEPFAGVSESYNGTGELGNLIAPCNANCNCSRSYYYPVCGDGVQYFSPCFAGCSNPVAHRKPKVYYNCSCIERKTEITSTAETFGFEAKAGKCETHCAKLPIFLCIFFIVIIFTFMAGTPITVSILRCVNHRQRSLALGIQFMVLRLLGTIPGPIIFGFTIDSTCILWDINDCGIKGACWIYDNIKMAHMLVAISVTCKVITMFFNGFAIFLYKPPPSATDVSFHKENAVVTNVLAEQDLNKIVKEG
Kind of series: TP_TRANSPORTER: inhibition of Digoxin uptake in OATP4C1-expressing MDCK cells. The format is functional, cell-based.

For series [2], the target named is T1, Solute carrier organic anion transporter family member 4C1. Kind of series: TP_TRANSPORTER: inhibition of Triiodothyronine uptake in OATP4C1-expressing MDCK cells. The class given is functional, cell-based.
Substrate in series [3]: C[C@H]1O[C@@H](O[C@H]2[C@@H](O)C[C@H](O[C@H]3[C@@H](O)C[C@H](O[C@H]4CC[C@@]5(C)[C@H](CC[C@@H]6[C@@H]5C[C@@H](O)[C@]5(C)[C@@H](C7=CC(=O)OC7)CC[C@]65O)C4)O[C@@H]3C)O[C@@H]2C)C[C@H](O)[C@@H]1O
In words: cells, lysate or membranes named.

Substrate in series [4]: N[C@@H](Cc1cc(I)c(Oc2ccc(O)c(I)c2)c(I)c1)C(=O)O
In words: cells, lysate or membranes named.

One may read the IC50 as the concentration needed to halve the response being measured. For orientation: Km means the substrate concentration at which the rate is half of its maximum.

`C[C@H]1O[C@@H](O[C@H]2[C@@H](O)C[C@H](O[C@H]3[C@@H](O)C[C@H](O[C@H]4CC[C@@]5(C)[C@H](CC[C@@H]6[C@@H]5CC[C@]5(C)[C@@H](C7=CC(=O)OC7)CC[C@]65O)C4)O[C@@H]3C)O[C@@H]2C)C[C@H](O)[C@@H]1O` [DIGITOXIN] had an IC50 in series [1] of 120 nM.

In series [1], `C[C@]12CC[C@H](O)C[C@H]1CC[C@@H]1[C@@H]2C[C@@H](O)[C@]2(C)[C@@H](C3=CC(=O)OC3)CC[C@]12O` [DIGOXIGENIN] came in with an IC50 of 490 nM.

In the case of `N[C@@H](Cc1cc(I)c(Oc2cc(I)c(O)c(I)c2)c(I)c1)C(=O)O` [LEVOTHYROXINE], the IC50 in series [2] came out at 8000 nM.

B1: Solute carrier organic anion transporter family member 4C1 (Homo sapiens) (protein)
chain: T1 sequence (Q6ZQN7 whole entry)
On to B1, for which the Km came out at 7.8 µM in series [3] and 5.9 µM in series [4].
